Earlier results in patent US6384081B2, “Treatment of diseases of the eye characterized by the formation of metalloproteinase” (priority 1998, dated 2002).
Read-outs that look alike come from different tables or passages of the source. One block for each molecule: values may come before it.

Assays:
[1] = target: collagenase purified from culture medium of alkali-burned rabbit corneas
[2] = rabbit eye, 7 mg/kg intravenously
[3] = system: epithelial healing in the rabbit alkali-burn model; conditions: for mean percentage of epithelial defects: at 14 days

Molecule: CCCC(NC(CC(C)C)C(=O)NC(Cc1ccccc1)C(=O)NC(C)C(N)=O)C(=O)O (stereo not drawn) [CH3(CH2)2(DL)CH-(COOH)-Leu-Phe-Ala-NH2]
IC50 ([1]; substrate not stated, read-out: IC50): 25 µM

Molecule: CC(CN1CC(=O)NC(=O)C1)N1CC(=O)NC(=O)C1 (centres unmarked) [Razoxane]
TIMP production (TIMP): stimulated TIMP production | collagenase production (collagenase): inhibited collagenase production

Molecule: O=C([O-])CC(O)(CC(=O)[O-])C(=O)[O-].[Na+].[Na+].[Na+] [sodium citrate]
reversal of inhibition by excess Ca2+ ([1]; excess Ca2+): could be reversed by excess Ca2+

Molecule: doxycycline hyclate
mean percentage of epithelial defects ([3]; 1.5 mg/kg orally daily for 14 days): 50.7% | mean percentage of epithelial defects ([3]; 5 mg/kg orally daily for 14 days): 7.1% | corneal reepithelialization ([3]; 5 mg/kg/day, systemically administered): promotes corneal reepithelialization

More lines, now with the values ahead:

IC50 ([1]; synthetic substrate Dnp-Pro-Leu-Gly-Leu-Trp-Ala-D-Arg-NH2, read-out: 50% inhibition (IC50)): ~0.01 µM
Molecule: CC(C)CC(CS)C(=O)NC(Cc1ccccc1)C(=O)NC(C)C(N)=O (stereo not drawn) [HSCH2(DL)CH[CH2 CH(CH3)2]CO-Phe-Ala-NH2]

IC50 ([1]; natural substrate (collagen), read-out: IC50): < 10000 µM | IC50 ([1]; synthetic substrate, read-out: IC50): 2700 µM
Molecule: CC(=O)N[C@@H](CS)C(=O)O [N-acetylcysteine]

inhibition of collagenase-mediated hydrolysis ([1]; either collagen or the synthetic substrate): did not inhibit
Molecule: O=C1O[C@H]([C@@H](O)CO)C([O-])=C1O.[Na+] [Sodium ascorbate]

intraocular penetration (sub-conjunctival, retrobulbar and intramuscular, one shot, healthy rabbit eye): best results
Molecule: CCC[C@@H]1C[C@@H](C(=O)N[C@@H]([C@H]2O[C@H](SC)[C@H](O)[C@@H](O)[C@H]2O)[C@H](C)Cl)N(C)C1 [clindamycin]

Doxycycline concentration in the cornea versus aqueous humor [2]: exceeded that in the aqueous humor | Vitreous body doxycycline concentration [2]: 0.3 microgram/g | penetrability into the tissues [2]: good penetrability | antibiotic concentration in all vascularized ocular structures ([2]; long-lasting): ≥ 1 microgram/g
Molecule: C[C@H]1c2cccc(O)c2C(=O)C2=C(O)[C@]3(O)C(=O)C(C(N)=O)=C(O)[C@@H](N(C)C)[C@@H]3[C@@H](O)[C@@H]21 [doxycycline]

intraocular penetration (rabbit, in vivo): best results
Molecule: spiramycin
